Values of other authors as cited in PMC4245168 (ACS Chemical Biology, 2014).

Tested on: parent TPR2A protein
Details: MEAVD versus MEEVD, ref [8]; cited from earlier work

MEAVD
ΔΔG associated with the difference between MEAVD and MEEVD binding: ~0.6 kcal/mol
